What is called pEC50 is the EC50 on a negative log10 scale, so that one unit is a factor of ten. The term CC50 denotes the concentration at which the toxic effect on the cells reaches its halfway point. In general, thermodynamic solubility refers to solubility found after equilibrating the solid with the medium.

Data set [1] has as its system Human immunodeficiency virus 1. Put plainly: Antiviral activity against HIV1 3B infected in human MT2 cells assessed as protection against viral infection by MTT method. It counts as functional, organism-based. The conditions noted are these: Human immunodeficiency virus 1, 3B.
A short description of data set [2]: Cytotoxicity against human MT2 cells assessed as growth inhibition by MTT method. It is filed as cell-based. (In general: Tetrazolium assays rely on reduction of a dye to a coloured formazan, in cell work by metabolically active cells.)
Data set [3] can be described thus: Aqueous solubility of compound in pH 6.5 solution by shake flask method. The conditions noted are these: aqueous solution pH 6.5, pH 6.5. It counts as physicochemical.
For data set [4], the system named is Human immunodeficiency virus 1. In words: Antiviral activity against HIV1 3B harboring reverse transcriptase Y181C mutant infected in human MT2 cells assessed as protection against viral infection by MTT method. It counts as functional, organism-based. The conditions noted are these: for pEC50: Human immunodeficiency virus 1, 3B, MT2, read-out: EC50.
Data set [5] concerns Human immunodeficiency virus 1. Put plainly: Antiviral activity against HIV1 3B harboring reverse transcriptase K103N/Y181C double mutant infected in human MT2 cells assessed as protection against viral infection by MTT method. It is filed as functional, organism-based. To be noted: for pEC50: Human immunodeficiency virus 1, 3B, MT2, read-out: EC50.

pEC50: −log10 of the molar value. ≈ marks a conversion by molar mass, not a printed value.

As for `CC(C)=CCOc1cc(Nc2nccn3cccc23)ccc1Cl`, the pEC50 in data set [1] was 7.72. Moreover, the half-maximal cytotoxic concentration (CC50) in data set [2] turned out to be 20000 nM.

Consider `N#Cc1ccc2c(Oc3ccc(F)cc3OCCn3ccc(=O)[nH]c3=O)cc(F)cc2c1`, for which the thermodynamic solubility in data set [3] was 82.9 µg/mL (≈ 190 µM).

As to `Cc1ccc(OCCn2ccc(=O)[nH]c2=O)c(Cc2ccccc2)c1`, the negative logarithm of the EC50 (pEC50) in data set [1] is 5.32.

Turning to `CC(C)=CCOc1cc(Nc2ncnc3occc23)ccc1Cl`, in data set [1], the pEC50 was 8.30. Also, the CC50 in data set [2] came out at 17000 nM.

Regarding `CC(C)=CCOc1cc(Nc2nccc3cccn23)ccc1Cl`, the pEC50 in data set [1] is 6.89. Moreover, in data set [2], the CC50 came out at 17000 nM.

For `COc1ccnc(Nc2ccc(Cl)c(Oc3ccccc3)c2)n1`, the pEC50 in data set [1] was 5.60.

In the case of `N#Cc1cc2c(Oc3ccccc3OCCn3ccc(=O)[nH]c3=O)cccn2c1`, the pEC50 in data set [1] is 9.42; in data set [4], 6.51; in data set [5], 7.96. Besides, the CC50 in data set [2] is greater than 100000 nM.

`N#Cc1ccc2c(Oc3ccccc3OCCn3ccc(=O)[nH]c3=O)cc(F)cc2c1`: the solubility (thermodynamic) in data set [3] amounted to 9.1 µg/mL (≈ 21.8 µM).

In the case of `Cc1ccnc2c1NC(=O)c1cccnc1N2C1CC1` [NEVIRAPINE], the CC50 in data set [2] is greater than 100000 nM. Further, the EC50 result in data set [4] and in data set [5] was “Not Active” throughout.

Turning to `Cc1cc(Oc2ccccc2OCCn2ccc(=O)[nH]c2=O)c2cc(C#N)[nH]c2c1`, the pEC50 in data set [1] is 8.00; in data set [5], 6.10. Besides, the EC50 result in data set [4] is given as “Not Active”.

Take `N#Cc1cc2c(Oc3ccccc3OCCn3ccc(=O)[nH]c3=O)cc(Cl)cc2o1`: the pEC50 was 7.72 in data set [1], 5.72 in data set [4] and 6.59 in data set [5]. The half-maximal cytotoxic concentration (CC50) in data set [2] was greater than 100000 nM.

For the compound `CSc1ccnc(Nc2ccc(C#N)c(Oc3cccc(/C=C/C#N)c3)c2)n1`, the pEC50 was 7.32 in data set [1] and 6.60 in data set [4]. In data set [2], the CC50 turned out to be 1200 nM.

As for `Cc1cc(/C=C/C#N)cc(Oc2cc(Nc3ncnc(C4CC4)n3)ccc2Cl)c1`, the negative logarithm of the EC50 (pEC50) in data set [4] is 8.31.

Consider `CC(C)=CCOc1cc(Nc2nccc3cc[nH]c23)ccc1Cl`, for which the negative-log EC50 (pEC50) in data set [1] was 6.05. Also, the CC50 in data set [2] worked out at 9200 nM.

Turning to `Cc1cc(/C=C/C#N)cc(Oc2cc(Nc3ncnc(C4CC4)n3)ccc2C)c1`, the pEC50 in data set [1] was 8.77; in data set [4], 7.82.

Values taken from ChEMBL document CHEMBL4477247, “Computer-aided discovery of anti-HIV agents” (Bioorg Med Chem, 2016).
